Where only a bound is given, the exact number is not on record here.

The target of one assay is T1, JAK3 (Homo sapiens, UniProt P52333).
T1 sequence (P52333 1-1124): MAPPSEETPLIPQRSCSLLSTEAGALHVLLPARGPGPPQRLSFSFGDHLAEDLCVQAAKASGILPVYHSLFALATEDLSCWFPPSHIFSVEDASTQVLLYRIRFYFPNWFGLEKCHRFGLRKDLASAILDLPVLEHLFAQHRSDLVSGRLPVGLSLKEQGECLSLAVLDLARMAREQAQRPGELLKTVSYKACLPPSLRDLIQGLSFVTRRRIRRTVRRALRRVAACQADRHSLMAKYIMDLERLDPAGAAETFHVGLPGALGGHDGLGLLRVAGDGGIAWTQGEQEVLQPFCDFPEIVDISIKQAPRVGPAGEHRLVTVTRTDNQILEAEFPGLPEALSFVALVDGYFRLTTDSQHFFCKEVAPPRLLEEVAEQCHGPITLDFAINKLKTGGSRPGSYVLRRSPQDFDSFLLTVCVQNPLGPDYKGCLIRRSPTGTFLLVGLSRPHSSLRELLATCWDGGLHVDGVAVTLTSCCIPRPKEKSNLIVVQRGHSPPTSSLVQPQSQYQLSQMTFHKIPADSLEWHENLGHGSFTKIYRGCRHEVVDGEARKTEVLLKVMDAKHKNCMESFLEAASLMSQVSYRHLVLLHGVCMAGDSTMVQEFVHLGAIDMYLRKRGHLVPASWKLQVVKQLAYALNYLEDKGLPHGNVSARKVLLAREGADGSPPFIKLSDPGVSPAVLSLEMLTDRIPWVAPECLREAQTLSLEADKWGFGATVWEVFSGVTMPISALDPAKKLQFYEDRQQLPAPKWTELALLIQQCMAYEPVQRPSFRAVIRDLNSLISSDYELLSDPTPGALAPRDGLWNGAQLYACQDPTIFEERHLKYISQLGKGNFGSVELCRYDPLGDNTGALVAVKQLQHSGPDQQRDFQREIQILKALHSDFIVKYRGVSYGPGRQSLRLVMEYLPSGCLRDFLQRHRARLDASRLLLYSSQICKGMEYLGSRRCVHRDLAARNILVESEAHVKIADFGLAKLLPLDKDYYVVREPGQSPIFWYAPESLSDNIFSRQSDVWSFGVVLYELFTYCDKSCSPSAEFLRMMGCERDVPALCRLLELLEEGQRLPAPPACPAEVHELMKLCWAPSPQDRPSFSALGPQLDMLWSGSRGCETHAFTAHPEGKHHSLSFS
Description: JAK3 inhibition assay (radiometric 33P filter assay). It is filed as biochemical. Conditions: 1 μM poly(Glu)4Tyr, 5 μM ATP, 1 nM JAK3, 25° C.; read-out: JAK3 inhibition data (Ki). On the procedure:
(§1) Compounds were screened for their ability to inhibit JAK using the assay shown below. Reactions were carried out in a kinase buffer containing 100 mM HEPES (pH 7.4), 1 mM DTT, 10 mM MgCl2, 25 mM NaCl, and 0.01% BSA.
(§2) Substrate concentrations in the assay were 5 μM ATP (200 uCi/μmole ATP) and 1 μM poly(Glu)4Tyr. Reactions were carried out at 25° C. and 1 nM JAK3.
(§3) To each well of a 96 well polycarbonate plate was added 1.5 μl of a candidate JAK3 inhibitor along with 50 μl of kinase buffer containing 2 μM poly(Glu)4Tyr and 10 μM ATP. This was then mixed and 50 μl of kinase buffer containing 2 nM JAK3 enzyme was added to start the reaction. After 20 minutes at room temperature (25° C.), the reaction was stopped with 50 μl of 20% trichloroacetic acid (TCA) that also contained 0.4 mM ATP. The entire contents of each well were then transferred to a 96 well glass fiber filter plate using a TomTek Cell Harvester. After washing, 60 μl of scintillation fluid was added and ^33P incorporation detected on a Perkin Elmer TopCount.

The target in a further assay is JAK-2 enzyme (Homo sapiens, UniProt O60674). As to the kind of experiment: JAK2 inhibition assay (radiometric 33P filter assay). Type of assay: biochemical. Conditions: 15 μM poly(Glu)4Tyr, 12 μM ATP; read-out: JAK2 inhibition data (Ki). As to the method: as §1, §2, §3
Sequence of JAK-2 enzyme (O60674 whole entry, species assumed): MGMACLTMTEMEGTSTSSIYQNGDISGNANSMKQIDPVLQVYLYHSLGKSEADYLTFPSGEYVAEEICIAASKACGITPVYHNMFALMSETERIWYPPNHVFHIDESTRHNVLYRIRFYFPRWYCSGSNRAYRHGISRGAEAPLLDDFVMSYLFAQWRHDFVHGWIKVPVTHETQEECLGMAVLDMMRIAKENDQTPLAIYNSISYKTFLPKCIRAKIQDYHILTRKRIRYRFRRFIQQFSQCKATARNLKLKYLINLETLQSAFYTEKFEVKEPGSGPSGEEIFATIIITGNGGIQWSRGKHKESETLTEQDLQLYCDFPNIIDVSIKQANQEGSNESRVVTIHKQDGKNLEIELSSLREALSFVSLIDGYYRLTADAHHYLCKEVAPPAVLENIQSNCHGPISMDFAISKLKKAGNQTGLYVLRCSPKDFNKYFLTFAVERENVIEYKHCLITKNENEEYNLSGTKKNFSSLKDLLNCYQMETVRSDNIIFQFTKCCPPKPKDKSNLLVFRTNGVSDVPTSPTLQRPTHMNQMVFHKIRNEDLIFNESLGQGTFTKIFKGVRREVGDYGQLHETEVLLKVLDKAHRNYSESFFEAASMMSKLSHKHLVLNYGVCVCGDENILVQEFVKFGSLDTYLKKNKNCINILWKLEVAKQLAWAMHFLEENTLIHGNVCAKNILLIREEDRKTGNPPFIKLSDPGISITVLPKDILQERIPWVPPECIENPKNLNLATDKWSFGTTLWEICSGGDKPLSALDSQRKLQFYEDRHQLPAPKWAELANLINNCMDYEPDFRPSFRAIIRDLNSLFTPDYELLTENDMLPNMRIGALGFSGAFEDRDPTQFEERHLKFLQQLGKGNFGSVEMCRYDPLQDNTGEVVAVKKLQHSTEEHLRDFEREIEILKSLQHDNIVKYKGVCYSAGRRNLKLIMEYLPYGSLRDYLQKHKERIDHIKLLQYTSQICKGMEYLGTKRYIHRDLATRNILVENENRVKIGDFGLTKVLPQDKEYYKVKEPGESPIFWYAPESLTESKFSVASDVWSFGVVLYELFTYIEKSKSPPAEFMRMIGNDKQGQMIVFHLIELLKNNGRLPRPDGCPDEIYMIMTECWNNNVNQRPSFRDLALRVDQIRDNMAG
The assays were as described above in Example 25 except that JAK-2 enzyme was used, the final poly(Glu)4Tyr concentration was 15 μM, and final ATP concentration was 12 μM.

As for `Nc1nc(Nc2ccc(N3CCOCC3)cc2)nn1-c1cc(N2CCNC(=O)CC2)ncn1` [Compound 3], the Ki on JAK3 and at JAK-2 enzyme was under 50 nM throughout.

On to `CCOC(=O)CCNC(=O)Nc1ccc(Nc2nc(N)n(-c3cc(N4CCCN(C(C)=O)CC4)ncn3)n2)cc1` [Compound 89], for which the Ki on JAK3 and on JAK-2 enzyme was under 50 nM each time.

For `CCCOC(=O)Nc1ccc(Nc2nc(N)n(-c3ccnc(N4C[C@@H](C)N(C(C)=O)[C@@H](C)C4)c3)n2)cc1` [Compound 102], the Ki on JAK3 and on JAK-2 enzyme was under 50 nM in each case.

Take `CCCC(=O)N1CCN(c2ccc(Nc3nc(N)n(-c4cc(N5CCCN(C(C)=O)CC5)ncn4)n3)cc2)CC1` [Compound 37]: the Ki on JAK3 and on JAK-2 enzyme was under 50 nM throughout.

In the case of `CC(=O)N1CCCN(c2cc(-n3nc(Nc4ccc(N(C)C(=O)OC(C)(C)C)cc4)nc3N)ncn2)CC1` [Compound 115], the Ki at JAK3 and at JAK-2 enzyme was under 50 nM in each case.

As for `CC(=O)N1[C@H](C)CN(c2cc(-n3nc(Nc4ccc(N5CCN(C(=O)OCC(C)(C)C)CC5)cc4)nc3N)ncn2)C[C@@H]1C` [Compound 57], the Ki at JAK3 and at JAK-2 enzyme was under 50 nM throughout.

As to `CC(=O)N1CCCN(c2cc(-n3nc(Nc4ccc(NC(=O)C5CCOCC5)cc4)nc3N)ncn2)CC1` [Compound 26], the Ki at JAK3 and at JAK-2 enzyme was under 50 nM in each case.

On to `CC(=O)N1[C@H](C)CN(c2cc(-n3nc(Nc4ccc(NC(=O)OC(C)(C)C)cc4)nc3N)ncn2)C[C@@H]1C` [Compound 84], for which the Ki at JAK3 and at JAK-2 enzyme was under 50 nM throughout.

For `CC(=O)N1[C@H](C)CN(c2cc(-n3nc(Nc4ccc(NC(=O)NC(C)(C)C)cc4)nc3N)ncn2)C[C@@H]1C` [Compound 70], the Ki on JAK3 and on JAK-2 enzyme was under 50 nM each time.

As for `Nc1nc(Nc2ccc(N3CCOCC3)cc2)nn1-c1ccnc(N2CCCOCC2)c1` [Compound 14], the inhibition constant (Ki) at JAK3 and on JAK-2 enzyme was 50 to 500 nM each time.

With `CC(=O)N1CCCN(c2cc(-n3nc(Nc4ccc(N5C[C@@H](C)O[C@@H](C)C5)cc4)nc3N)ncn2)CC1` [Compound 33], the Ki at JAK3 and on JAK-2 enzyme was under 50 nM throughout.

Turning to `COC(=O)N1CCCN(c2cc(-n3nc(Nc4ccc(N5CCN(C(=O)OC(C)C)CC5)cc4)nc3N)ccn2)CC1` [Compound 156], the inhibition constant Ki at JAK3 and at JAK-2 enzyme was 50 to 500 nM each time.

`CC(=O)N1CCCN(c2cc(-n3nc(Nc4ccc(N5CCN(C(=O)C(C)C)CC5)cc4)nc3N)ncn2)CC1` [Compound 44]: the inhibitory constant (Ki) on JAK3 and on JAK-2 enzyme was under 50 nM each time.

As to `CC(=O)N1[C@H](C)CN(c2cc(-n3nc(Nc4ccc(N5CCN(C(=O)NC6CCCCC6)CC5)cc4)nc3N)ncn2)C[C@@H]1C` [Compound 64], the Ki on JAK3 and on JAK-2 enzyme was under 50 nM each time.

Take `CCCNC(=O)Nc1ccc(Nc2nc(N)n(-c3cc(N4CCCN(C(C)=O)CC4)ncn3)n2)cc1` [Compound 85]: the Ki on JAK3 and at JAK-2 enzyme was under 50 nM each time.

For the compound `CCCOC(=O)N1CCN(c2ccc(Nc3nc(N)n(-c4cc(N5CCCN(C(C)=O)CC5)ncn4)n3)cc2)CC1` [Compound 47], the Ki on JAK3 and at JAK-2 enzyme was under 50 nM in each case.

Turning to `CC(=O)N1CCCN(c2cc(-n3nc(Nc4ccc(NC(=O)OCC(C)C)cc4)nc3N)ccn2)CC1` [Compound 175], the Ki on JAK3 and on JAK-2 enzyme was 50 to 500 nM each time.

Turning to `CC(=O)N1CCCN(c2cc(-n3nc(Nc4ccc(NC(=O)NC5CCCCC5)cc4)nc3N)ncn2)CC1` [Compound 88], the Ki at JAK3 and on JAK-2 enzyme was under 50 nM each time.

As to `COC(=O)Nc1ccc(Nc2nc(N)n(-c3cc(N4CCCN(C(C)=O)CC4)ncn3)n2)cc1` [Compound 90], the Ki at JAK3 and on JAK-2 enzyme was under 50 nM throughout.

Take `CC(=O)N1CCCN(c2cc(-n3nc(Nc4ccc(N(C)C(=O)OCC(C)C)cc4)nc3N)ncn2)CC1` [Compound 131]: the Ki at JAK3 and at JAK-2 enzyme was under 50 nM in each case.

On to `CCNC(=O)N1CCN(c2ccc(Nc3nc(N)n(-c4cc(N5C[C@@H](C)N(C(C)=O)[C@@H](C)C5)ncn4)n3)cc2)CC1` [Compound 60], for which the Ki at JAK3 and on JAK-2 enzyme was under 50 nM in each case.

As to `COC1CCCC(C(=O)Nc2ccc(Nc3nc(N)n(-c4cc(N5CCCN(C(C)=O)CC5)ncn4)n3)cc2)C1` (stereo not shown) [Compound 32], the inhibitory constant (Ki) on JAK3 and on JAK-2 enzyme was under 50 nM throughout.

As for `CCNC(=O)Nc1ccc(Nc2nc(N)n(-c3ccnc(N4C[C@@H](C)N(C(C)=O)[C@@H](C)C4)c3)n2)cc1` [Compound 105], the Ki on JAK3 and at JAK-2 enzyme was under 50 nM in each case.

For `CC(=O)N1[C@H](C)CN(c2cc(-n3nc(Nc4ccc(NC(=O)NC(C)C)cc4)nc3N)ncn2)C[C@@H]1C` [Compound 69], the Ki on JAK3 and at JAK-2 enzyme was under 50 nM in each case.

In the case of `CC(=O)N1CCCN(c2cc(-n3nc(Nc4ccc(NC(=O)c5ccncc5)cc4)nc3N)ncn2)CC1` [Compound 28], the Ki at JAK3 and on JAK-2 enzyme was under 50 nM throughout.

With `CCCNC(=O)N1CCN(c2ccc(Nc3nc(N)n(-c4cc(N5C[C@@H](C)N(C(C)=O)[C@@H](C)C5)ncn4)n3)cc2)CC1` [Compound 61], the Ki at JAK3 and at JAK-2 enzyme was under 50 nM throughout.

With `CC(=O)N1CCCN(c2cc(-n3nc(Nc4ccc(N5CCCCC5)cc4)nc3N)ncn2)CC1` [Compound 13], the Ki at JAK3 and on JAK-2 enzyme was under 50 nM in each case.

For `Nc1nc(Nc2ccc(N3CCOCC3)cc2)nn1-c1cc(N2CCN3C(=O)CC[C@H]3C2)ncn1` [Compound 22], the Ki on JAK3 and on JAK-2 enzyme was under 50 nM each time.

Turning to `CCCNC(=O)Nc1ccc(Nc2nc(N)n(-c3ccnc(N4C[C@@H](C)N(C(C)=O)[C@@H](C)C4)c3)n2)cc1` [Compound 106], the Ki on JAK3 and on JAK-2 enzyme was under 50 nM in each case.

In the case of `CCOC(=O)Nc1ccc(Nc2nc(N)n(-c3cc(N4CCCN(C(=O)CC#N)CC4)ncn3)n2)cc1` [Compound 137], the Ki at JAK3 and on JAK-2 enzyme was under 50 nM each time.

Regarding `CC(=O)N1CCCN(c2cc(-n3nc(Nc4ccc(NC(=O)c5ccco5)cc4)nc3N)ncn2)CC1` [Compound 30], the Ki at JAK3 and at JAK-2 enzyme was under 50 nM each time.

Consider `CC(=O)N1CCCN(c2cc(-n3nc(Nc4ccc(N5CCOCC5)cc4)nc3N)ncn2)CC1` [Compound 2], for which the Ki at JAK3 and on JAK-2 enzyme was under 50 nM throughout.

For the compound `CC(=O)N1[C@H](C)CN(c2cc(-n3nc(Nc4ccc(NC(=O)OC(C)C)cc4)nc3N)ccn2)C[C@@H]1C` [Compound 103], the Ki on JAK3 and on JAK-2 enzyme was under 50 nM each time.

Consider `COC1CCC(C(=O)Nc2ccc(Nc3nc(N)n(-c4cc(N5CCCN(C(C)=O)CC5)ncn4)n3)cc2)CC1` (stereo not shown) [Compound 31], for which the Ki at JAK3 and at JAK-2 enzyme was under 50 nM each time.

On to `CCOC(=O)Nc1ccc(Nc2nc(N)n(-c3cc(N4CCCN(C(C)=O)CC4)ncn3)n2)cc1` [Compound 91], for which the Ki at JAK3 and at JAK-2 enzyme was under 50 nM each time.

For `CCCOC(=O)N1CCCN(c2cc(-n3nc(Nc4ccc(N5CCN(C(=O)OCC)CC5)cc4)nc3N)ccn2)CC1` [Compound 150], the Ki at JAK3 and at JAK-2 enzyme was 50 to 500 nM each time.

`CC(=O)N1[C@H](C)CN(c2cc(-n3nc(Nc4ccc(NC(=O)O[C@@H]5C[C@@H](C)CC[C@@H]5C(C)C)cc4)nc3N)ncn2)C[C@@H]1C` [Compound 83]: the Ki at JAK-2 enzyme is under 50 nM.

For the origin of these results see US7329652B2, “Diaminotriazole compounds useful as protein kinase inhibitors” (Vertex Pharamaceuticals Incorporated, priority 2004, dated 2008).
